This note sets out measurements from article PMC6921030, “Biochemical Characterization of a Novel α/β-Hydrolase/FSH from the White Shrimp Litopenaeus vannamei” (Biomolecules, 2019).

The test has as its target T1, LvFSH (LvFHS) (Penaeus vannamei, UniProt A0A3R7MXL5).
T1 construct: gene C7M84_009540; synthetic codon-optimised gene of LvFSH coding region, N-terminal 10-His tag (cutting not mentioned), pJexpress414, E. coli BL21DE3-SI; about 27 kDa on SDS-PAGE, about 58 kDa by gel filtration (probable dimer); catalytic triad Ser111/Asp169/His196 proposed; C-terminal motif KMRELC 214-219
In words: spectrophotometric p-nitrophenol release at […] nm, non-linear Michaelis-Menten fit. It is filed as biochemical. Particulars: 50 mM Tris-HCl pH 8.0, 37 °C, 0.2% (v/v) Triton X-100, 50 mM NaCl; substrate 0.05-2 mM in ethanol.

Structures are written as SMILES.

T1 sequence (A0A3R7MXL5 entry or part of it): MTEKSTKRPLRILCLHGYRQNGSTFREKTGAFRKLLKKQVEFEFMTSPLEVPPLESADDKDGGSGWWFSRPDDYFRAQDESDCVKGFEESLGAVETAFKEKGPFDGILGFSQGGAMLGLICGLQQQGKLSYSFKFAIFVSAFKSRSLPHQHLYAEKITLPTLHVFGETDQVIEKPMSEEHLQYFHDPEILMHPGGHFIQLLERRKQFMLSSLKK

`CC(=O)Oc1ccc([N+](=O)[O-])cc1` [p-nitrophenyl acetate]: the Michaelis constant (Km) (in general, the substrate concentration at which the rate is half of its maximum) came to 1000 ± 40 µM.
